Data from ChEMBL document CHEMBL1145469, “Lysostaphin in treatment of neonatal Staphylococcus aureus infection” (Antimicrob Agents Chemother, 2007).
Converted amounts (≈) assume the structure as drawn.

Assays:
[1] = system: Serum; assay: Drug level in Staphylococcus aureus infected Wistar rat pups serum at 15 mg/kg, ip; format: ADME, organism-based; design: dose 15 mg/kg, route intraperitoneal; details: in vivo
[2] = Drug level in rat serum at 100 mg/kg, iv after 2 hrs; format: ADME, organism-based; design: dose 100 mg/kg, route intravenous; details: read-out: Drug uptake
[3] = system: Staphylococcus aureus; assay: Antibacterial activity against methicillin-sensitive Staphylococcus aureus; format: functional
[4] = Drug level in rat serum at 30 mg/kg, sc after 1 hr; format: ADME, organism-based; design: dose 30 mg/kg, route subcutaneous; details: read-out: Drug uptake
[5] = Drug level in rat serum at 100 mg/kg, iv after 0.5 hr; format: ADME, organism-based; design: dose 100 mg/kg, route intravenous; details: read-out: Drug uptake
[6] = system: Rattus norvegicus; assay: Drug level in rat serum at 25 mg/kg, im; format: ADME, organism-based; design: dose 25 mg/kg, route intramuscular; details: in vivo
[7] = system: Serum; assay: Drug level in Staphylococcus aureus infected Wistar rat pups serum at 50 mg/kg, ip; format: ADME, organism-based; design: dose 50 mg/kg, route intraperitoneal; details: in vivo

Row | Drug uptake [6] | Structure (SMILES) | Drug uptake [1] | concentration at 2 h [2] | MBC [3] | concentration at 1 h [4] | concentration at 0.5 h [5] | MIC [3] | Drug uptake [7]
1 | – | CN[C@H](CC(C)C)C(=O)N[C@H]1C(=O)N[C@@H](CC(N)=O)C(=O)N[C@H]2C(=O)N[C@H]3C(=O)N[C@H](C(=O)N[C@H](C(=O)O)c4cc(O)cc(O)c4-c4cc3ccc4O)[C@H](O)c3ccc(c(Cl)c3)Oc3cc2cc(c3O[C@@H]2O[C@H](CO)[C@@H](O)[C@H](O)[C@H]2O[C@H]2C[C@](C)(N)[C@H](O)[C@H](C)O2)Oc2ccc(cc2Cl)[C@H]1O [VANCOMYCIN] | > 125 µg/mL | 45000 ng/mL | 0.25 µg/mL (≈ 0.173 µM) | 36000 ng/mL | 180000 ng/mL | – | –
2 | 20.6 µg/mL | CCOc1ccc2ccccc2c1C(=O)N[C@@H]1C(=O)N2[C@@H]1SC(C)(C)[C@@H]2C(=O)O [NAFCILLIN] | – | – | – | – | – | – | –
3 | – | Cc1onc(-c2ccccc2)c1C(=O)N[C@@H]1C(=O)N2[C@@H]1SC(C)(C)[C@@H]2C(=O)O [OXACILLIN] | – | – | 0.25 µg/mL (≈ 0.623 µM) | – | – | 0.125 µg/mL (≈ 0.311 µM) | > 125 µg/mL
